Series [1] is described as follows: Human liver microsome stability. Type of series: in vitro ADME. As to conditions: pH 7.4; human liver microsomes, NADPH, 37° C. The protocol: The compounds listed in Table 2 below were tested for metabolic stability in human liver microsomes as described below using a Biomek3000 (Beckman Coulter). There were dispensed 400 ILL of 1 mg/mL human liver microsomes (XENOTECH)/0.1 M potassium phosphate buffer (pH 7.4) into each well of a 96-well plate. A DMSO solution (4 μL) of 200 μM test compound was then added, and incubation was conducted until reaching 37° C. To this reaction mixture (200 IL) there was added a solution (200 μL) containing 2 mM NADPH (ORIENTAL YEAST)/0.1 M potassium phosphate buffer (pH 7.4) that had been incubated at 37° C. At 0 min, 5 min, 15 min or 30 min after addition, the reaction mixture (50 μL) was added to acetonitrile (100 μL) to stop the metabolic reaction. After the metabolic reaction was stopped, a 1 μM warfarin aqueous solution (50 μL) was added to each reaction mixture as an internal standard. […] The percent remaining relative to the amount of test compound at 0 min was calculated from the obtained peak area ratio of the test compound to internal standard. The elimination rate constant (ke) was calculated from the incubation time and percent remaining using the primary elimination rate equation, and the hepatic intrinsic clearance (CLint) was calculated using the formula shown below. […]

A further series concerns the target T1, BRAF (Homo sapiens, UniProt P15056).
T1 construct: purchased Eurofins Genomics KK
The series is described as follows: BRAF-inhibiting activity (time-resolved fluorescence-fluorescence resonance energy transfer assay). As to conditions: MEK1, ATP-containing buffer. The class given is biochemical. How it is done:
The BRAF-inhibiting activity of the compounds listed in Table 2 below was evaluated by the time-resolved fluorescence-fluorescence resonance energy transfer assay as described below.

For series [2], the system named is A549 human lung cancer cells. The series is described as follows: Cell proliferation-inhibiting activity, A549 (CellTiter-Glo). The class given is cell-based. The settings on record: A549, 96 h.
Experimental: The test compound was serially diluted with DMSO and then diluted 25-fold with Ca^2+, Mg^2+-free phosphate-buffered saline, and was then dispensed into a 96-well plate at 5 μL per well. A cell suspension containing the below indicated concentration of A549, Calu-6 or NCI-H2122 human lung cancer cells (all obtained from ATCC) was prepared using the below indicated medium with the addition of 10% fetal bovine serum (Sigma). The cell suspension was dispensed into the test compound-added plate at 95 μL per well and cultured in a 5% carbon dioxide gas incubator at 37° C. After 4 days, 80 μL of CellTiter-Glo (registered trademark) (Promega Corp.) was added to each well and the bioluminescence was measured with a fluorescent plate reader.

SMILES strings stand for the structures.

These results are taken from US20230270730A1, “COMPOSITION CONTAINING ARYLAMIDE DERIVATIVE” (Chugai Seiyaku Kabushiki Kaisha, priority 2020, published 2023).

T1 sequence (P15056 whole entry): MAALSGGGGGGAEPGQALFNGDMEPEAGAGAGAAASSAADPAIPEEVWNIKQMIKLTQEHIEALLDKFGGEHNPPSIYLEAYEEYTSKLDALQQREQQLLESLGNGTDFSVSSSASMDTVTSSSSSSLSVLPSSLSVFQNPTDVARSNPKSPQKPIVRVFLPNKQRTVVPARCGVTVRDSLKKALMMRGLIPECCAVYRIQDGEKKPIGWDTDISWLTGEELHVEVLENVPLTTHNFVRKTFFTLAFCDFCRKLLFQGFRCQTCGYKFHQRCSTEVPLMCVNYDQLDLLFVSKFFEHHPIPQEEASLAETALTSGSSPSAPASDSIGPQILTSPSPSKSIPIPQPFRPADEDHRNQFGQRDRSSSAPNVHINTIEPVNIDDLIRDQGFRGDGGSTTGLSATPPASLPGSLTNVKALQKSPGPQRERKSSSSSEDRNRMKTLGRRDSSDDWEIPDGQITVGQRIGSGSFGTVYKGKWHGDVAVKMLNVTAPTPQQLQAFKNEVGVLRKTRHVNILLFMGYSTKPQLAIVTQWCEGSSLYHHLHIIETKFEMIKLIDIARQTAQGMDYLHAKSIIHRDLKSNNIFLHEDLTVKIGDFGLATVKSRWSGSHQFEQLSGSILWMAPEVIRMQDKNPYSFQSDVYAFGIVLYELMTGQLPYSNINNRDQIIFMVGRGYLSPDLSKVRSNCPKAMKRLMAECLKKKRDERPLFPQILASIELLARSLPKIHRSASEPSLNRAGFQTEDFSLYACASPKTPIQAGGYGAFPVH
T1 sequence (Q02750 whole entry partner): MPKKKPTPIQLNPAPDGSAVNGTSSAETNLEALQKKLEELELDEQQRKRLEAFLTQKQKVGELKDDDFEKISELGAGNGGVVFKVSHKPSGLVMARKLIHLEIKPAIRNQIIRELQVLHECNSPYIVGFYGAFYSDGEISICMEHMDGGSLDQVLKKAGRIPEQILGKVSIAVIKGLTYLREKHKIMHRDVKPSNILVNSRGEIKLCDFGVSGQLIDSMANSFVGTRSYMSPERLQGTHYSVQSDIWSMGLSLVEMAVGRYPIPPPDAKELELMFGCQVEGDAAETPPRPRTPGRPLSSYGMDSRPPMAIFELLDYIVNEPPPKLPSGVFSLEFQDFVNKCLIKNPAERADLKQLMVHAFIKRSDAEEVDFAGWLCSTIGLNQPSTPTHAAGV

In series [1], `NC(=O)c1cc(Cc2ccnc(NS(=O)(=O)NC3C4COCC43)c2F)c(F)c(F)c1Nc1ccc(I)cc1F` (centres unmarked) [Sample A-22, 3,4-Difluoro-2-(2-fluoro-4-iodoanilino)-5-[[3-fluoro-2-(3-oxabicyclo[3.1.0]hexan-6-ylsulfamoylamino)pyridin-4-yl]methyl]benzamide] showed an intrinsic clearance (microsomal CLint) at 0.99 µM of 47 µL/min/mg.
Molecule `CCNS(=O)(=O)Nc1nccc(Cc2cc(C(=O)NOCCO)c(Nc3ccc(I)cc3F)c(F)c2F)c1F` [Sample A-44, 5-[[2-(Ethylsulfamoylamino)-3-fluoropyridin-4-yl]methyl]-3,4-difluoro-2-(2-fluoro-4-iodoanilino)-N-(2-hydroxyethoxy)benzamide] had a half-inhibitory concentration (IC50) against BRAF of 9 nM.
Take `NC(=O)c1cc(Cc2ccnc(NS(=O)(=O)NC3CCOCC3)c2F)c(F)c(F)c1Nc1ccc(I)cc1F` [Sample A-29, 3,4-Difluoro-2-(2-fluoro-4-iodoanilino)-5-[[3-fluoro-2-(oxan-4-ylsulfamoylamino)pyridin-4-yl]methyl]benzamide]: 1 nM corresponded to half-maximal inhibition against BRAF (IC50).
As for `CC1(NS(=O)(=O)Nc2nccc(Cc3cc(C(N)=O)c(Nc4ccc(I)cc4F)c(F)c3F)c2F)CCC1` [Sample A-35, 3,4-difluoro-2-(2-fluoro-4-iodoanilino)-5-[[3-fluoro-2-[(1-methylcyclobutyl)sulfamoylamino]pyridin-4-yl]methyl]benzamide], the 50% inhibitory concentration (IC50) in series [2] is 2 nM.
On to `NC(=O)c1cc(Cc2ccnc(NS(=O)(=O)NCC3COC3)c2F)c(F)c(F)c1Nc1ccc(I)cc1F` [Sample A-21, 3,4-difluoro-2-(2-fluoro-4-iodoanilino)-5-[[3-fluoro-2-(oxetan-3-ylmethylsulfamoylamino)pyridin-4-yl]methyl]benzamide], for which the half-maximal inhibitory concentration (IC50) in series [2] worked out at 3 nM.
